In the supplement of paper PMC4862054:

Legend:
Settings in all cases: incubation time: 72 h
[1] = tested on: BT-549; assay: drug sensitivity score (DSS), CellTiter-Glo (DSS (AUC-based score)); higher = stronger drug effect (viability inhibition or cytotoxicity); extreme values may be limits of the assay
How it was run: (§1)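 The drug sensitivity score was computed from the area under the fitted dose-response curve. Breast cancer cell lines in 20 µl suspension went into 384-well plates holding compound at 5 concentrations (10-fold steps over a 10,000-fold, compound-specific range) for 72 h of incubation. CellTox Green fluorescence (485/520 nm) was read before CellTiter-Glo luminescence, the latter after 10 min at room temperature, and each plate was normalised to 0.1 % DMSO and a positive kill control.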

[2] = tested on: CAL-148; assay: as above
How it was run: as §1

[3] = tested on: HCC1143; assay: as above
How it was run: as §1

[4] = tested on: MCF-10A; assay: as above
How it was run: as §1

[5] = tested on: MDA-MB-231; assay: as above
How it was run: as §1

[6] = tested on: BT-474; assay: drug sensitivity score (DSS), CellTox Green (DSS (AUC-based score)); higher = stronger drug effect (viability inhibition or cytotoxicity); extreme values may be limits of the assay
How it was run: as §1

[7] = tested on: BT-549; assay: as above
How it was run: as §1

[8] = tested on: CAL-120; assay: as above
How it was run: as §1

[9] = tested on: CAL-148; assay: as above
How it was run: as §1

[10] = tested on: CAL-51; assay: as above
How it was run: as §1

[11] = tested on: CAL-85-1; assay: as above
How it was run: as §1

[12] = tested on: DU-4475; assay: as above
How it was run: as §1

[13] = tested on: HCC1143; assay: as above
How it was run: as §1

[14] = tested on: HCC1599; assay: as above
How it was run: as §1

[15] = tested on: HCC1937; assay: as above
How it was run: as §1

[16] = tested on: HDQ-P1; assay: as above
How it was run: as §1

[17] = tested on: Hs578T; assay: as above
How it was run: as §1

[18] = tested on: MCF-10A; assay: as above
How it was run: as §1

[19] = tested on: MDA-MB-231; assay: as above
How it was run: as §1

[20] = tested on: MDA-MB-436; assay: as above
How it was run: as §1

[21] = tested on: MDA-MB-453; assay: as above
How it was run: as §1

[22] = tested on: MFM-223; assay: as above
How it was run: as §1

Measured: drug sensitivity score

CC(=O)Nc1ccc(C(=O)Nc2ccccc2N)cc1 [Tacedinaline]
0: [1] | [2] | [3] | [4] | [5] | [6] | [7] | [8] | [9] | [10] | [11] | [12] | [13] | [14] | [15] | [16] | [17] | [18] | [19] | [20] | [21] | [22]
